The source of these data is patent publication US12590062B2, “PD-1/PD-L1 inhibitors” (Gilead Sciences, Inc., priority 2017, dated 2026).

The target of one test is T1, PD-1/PD-L1 interaction (Homo sapiens, UniProt Q9NZQ7).
T1 construct: expressed in transfected cells; host or cells: CHO cells (aAPC-PD-L1) co-cultured with Jurkat cells overexpressing PD-1 and an NFAT-luciferase reporter
Briefly: PD-1/PD-L1 NFAT reporter co-culture assay. It is filed as cell-based. Conditions: Jurkat PD-1 NFAT-luciferase cells co-cultured with aAPC-PD-L1 CHO cells, 6 hrs at 37° C.; read-out: EC50 NFAT Luciferase. In short, it runs like this:
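Luminescence (ONE-Glo) after 6 h, 37 °C co-culture reports NFAT-luciferase in PD-1 Jurkat cells, which PD-1/PD-L1 engagement suppresses. Partner cells: CHO expressing anti-CD3 and PD-L1. EC50 from four-parameter dose-response fit.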

Test [1] has as its target T2, interaction between the recombinant extracellular domain (ECD) of PD-1 and native cell-bound PD-L1 (Homo sapiens, UniProt Q9NZQ7).
T2 construct: expressed in transfected cells
Briefly: CHO/PD-L1 cell capture assay. Format: cell-based. Conditions: CHO cells overexpressing PD-L1, pre-incubated 1 hr with compound, captured on biotinylated Fc-PD-1 coated plates, 75 min at room temperature. How it is done:
EC50-CHO/PD-L1-Capture Assay:
Compounds were tested in a cell capture assay to determine if they can specifically block the interaction between the recombinant extracellular domain (ECD) of PD-1 and native cell-bound PD-L1. Binding affinity of stable CHO cells overexpressing PD-L1 with its cognate recombinant ligand coated on plates was measured by counting the number of ‘captured’ cells. High-capacity streptavidin- coated plates were incubated with biotylated-Fc-PD-1 for 2 hours in PBS. Unbound ligand was washed out. CHO-PD-L1 cells (resuspended in PBS pH 7.4, 0.5 mM EDTA, and 2% bovine serum albumin) were pre-incubated for 1 hr with compound, dispensed into each PD-1 ECD coated well and then incubated for 75 min at room temperature. To stop the capture assay, a fixative/staining solution (final concentrations are 1.3% glutaraldehyde and 1.67 μM Draq5) was gently added to the cells and incubated for 2 hrs at room temperature. Unbound cells were then washed out and ‘captured’ cells were enumerated using a high-content microscopy system. EC50 values were calculated from the fit of the dose-response curves to a four-parameter equation. Representative data are shown below in Table 2.

For a further test, the target named is PD-1/PD-L1 (Homo sapiens, UniProt Q9NZQ7). Briefly: PD-1/PD-L1 biochemical protein-protein interaction assay (ALPHA). Format: binding. Conditions: 0.3 nM His tagged PD-L1, 2.5 nM biotinylated Fc-PD-1, 60 minutes at 25° C., read-out: IC50 PD-L1-PD-1 Alpha IC50-mono PD-L1-fcP-D1. Summed up:
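His-PD-L1 ECD 0.3 nM + biotin-Fc-PD-1 2.5 nM (final), 25 mM Hepes pH 7.4, 150 mM NaCl, 3.4 mM EDTA; 60 min, 25° C; anti-His acceptor/streptavidin donor ALPHA beads; decreased signal = blocked binding; 4-parameter IC50.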

In a further test the target is T3, PD-L1 (Homo sapiens, UniProt Q9NZQ7).
T3 construct: determine if they can specifically dimerize the extracellular domains of PD-L1
T3 sequence (Q9NZQ7 19-238 limits assumed): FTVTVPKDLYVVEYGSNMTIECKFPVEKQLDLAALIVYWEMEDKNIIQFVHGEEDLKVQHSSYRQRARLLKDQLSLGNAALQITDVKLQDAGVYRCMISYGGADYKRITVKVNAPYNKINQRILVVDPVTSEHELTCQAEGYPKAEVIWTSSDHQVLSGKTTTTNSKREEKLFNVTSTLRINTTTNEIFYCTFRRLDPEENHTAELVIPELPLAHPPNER
T3 sequence (Q9NZQ7 19-238 limits assumed): as above
Briefly: PD-L1/PD-L1 dimerization biochemical protein-protein interaction assay (ALPHA). Conditions: compound-induced PD-L1 dimerization, head prints '1 nM' (0.5 nM His-tagged PD-L1 and 0.5 nM FLAG-tagged PD-L1), read-out: AC50 PDL1 Dimer Alpha 1 nM. Format: binding. In short, it runs like this:
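After 2 h at 25 °C with compound, His- and FLAG-tagged PD-L1 ECDs (each 0.5 nM final; 25 mM Hepes pH 7.4, 150 mM NaCl) were detected by sequential anti-His acceptor and anti-FLAG donor bead incubations. Dose-response curves fitted to four-parameter equation for AC50.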

pEC50, pIC50: −log10 of the molar value.

Sequence of PD-1/PD-L1 (Q9NZQ7 19-238 limits assumed): as above
T1 sequence (Q9NZQ7 19-290): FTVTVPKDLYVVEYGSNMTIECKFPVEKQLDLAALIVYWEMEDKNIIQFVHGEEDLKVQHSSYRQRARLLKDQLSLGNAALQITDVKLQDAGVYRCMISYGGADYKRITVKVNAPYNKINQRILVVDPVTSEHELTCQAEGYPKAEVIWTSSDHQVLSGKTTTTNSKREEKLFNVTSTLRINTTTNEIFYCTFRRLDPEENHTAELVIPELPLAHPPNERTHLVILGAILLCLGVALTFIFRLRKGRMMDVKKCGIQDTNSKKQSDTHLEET
T2 sequence (Q9NZQ7 19-290): as above

On to `COc1nc(O[C@H]2CCc3c(-c4cccc5c4CC[C@@H]5Oc4nc(OC)c(CNCC(=O)O)cc4Cl)cccc32)ccc1CNCC(=O)O` [Example 1, ((6-(((1S,1′S)-1′-((5-(((carboxymethyl)amino)methyl)-3-chloro-6-methoxypyridin-2-yl)oxy)-2,2′,3,3′-tetrahydro-1H,1′H-[4,4′-biinden]-1-yl)oxy)-2-methoxypyridin-3-yl)methyl)glycine], for which the pEC50 on PD-1/PD-L1 interaction was 6.29; in test [1], 6.42.
For the molecule `COc1nc(O[C@H]2CCc3c(-c4cccc5c4CC[C@@H]5Oc4nc(OC)c(CNCC(=O)O)cc4Cl)cccc32)c(Cl)cc1CNCC(=O)O` [Example 2, 2,2′-((((((1S,1′S)-2,2′,3,3′-tetrahydro-1H,1′H-[4,4′-biindene]-1,1′-diyl)bis(oxy))bis(5-chloro-2-methoxypyridine-6,3-diyl))bis(methylene))bis(azanediyl))diacetic acid], the pEC50 was 6.34 on PD-1/PD-L1 interaction and 5.89 in test [1].
As for `COc1nc(O[C@H]2CCc3c(-c4cccc(-c5ccc(C6=NCCN6)c(OC)n5)c4Cl)cccc32)c(Br)cc1CNC[C@@H]1CCC(=O)N1` [Example 779], the pEC50 at PD-1/PD-L1 interaction is 7.17. The pIC50 at PD-1/PD-L1 was 9.45. Also, the AC50 at PD-L1 is 113 nM.
For `COc1cc(-c2cccc(-c3cccc4c3CC[C@@H]4Oc3nc(OC)c(CN[C@@](C)(CO)C(=O)O)cc3Br)c2Cl)ccc1C1=NCCN1` [Example 780] the same measures were 7.30, 10.19 and 14.4 nM.
For `COc1nc(O[C@H]2CCc3c(-c4cccc(-c5ccc(C6=N[C@@H](C)CN6)c(OC)n5)c4Cl)cccc32)c(Br)cc1CN[C@@](C)(CO)C(=O)O` [Example 781] the same measures were 7.47, 10.19 and 23.3 nM.
For the molecule `COc1nc(O[C@H]2CCc3c(-c4cccc(-c5ccc(C6=N[C@H](C)CN6)c(OC)n5)c4Cl)cccc32)c(Br)cc1CN[C@@](C)(CO)C(=O)O` [Example 782], the pEC50 at PD-1/PD-L1 interaction is 7.42. Moreover, on PD-1/PD-L1, the pIC50 is 10.19. Moreover, the AC50 on PD-L1 turned out to be 23.1 nM.
Consider `COc1nc(O[C@H]2CCc3c(-c4cccc(-c5ccc6c(c5)C[C@@H](N)C6)c4Cl)cccc32)ccc1CN[C@@](C)(CO)C(=O)O` [Example 783], for which, on PD-1/PD-L1 interaction, the pEC50 was 5.52. Further, the negative-log IC50 (pIC50) at PD-1/PD-L1 was 9.59. Also, on PD-L1, the AC50 stood at 823 nM.
Turning to `COc1nc(O[C@H]2CCc3c(-c4cccc(-c5ccc6c(c5)C[C@@H](N)C6)c4Cl)cccc32)c(Br)cc1CN[C@@](C)(CO)C(=O)O` [Example 784], the pEC50 on PD-1/PD-L1 interaction was 6.74. Further, at PD-1/PD-L1, the negative logarithm of the IC50 (pIC50) is 10.19. For the same molecule, the AC50 at PD-L1 was found to be 28.9 nM.
Turning to `COc1nc(O[C@H]2CCc3c(-c4cccc(-c5ccc(C6=NCCN6)c(OC)n5)c4Cl)cccc32)c(Br)cc1CN1CCCC[C@H]1C(=O)O` [Example 785], the pEC50 on PD-1/PD-L1 interaction is 7.18. The pIC50 on PD-1/PD-L1 is 10.19. Further, the AC50 on PD-L1 was 16.1 nM.
Take `COc1nc(O[C@H]2CCc3c(-c4cccc(-c5ccc(C6=NCCN6)c(OC)n5)c4Cl)cccc32)c(Br)cc1CNC(C)(C)C(=O)O` [Example 786]: the pEC50 at PD-1/PD-L1 interaction was 7.07. On PD-1/PD-L1, the pIC50 is 10.19. Besides, the AC50 on PD-L1 came out at 12.2 nM.
Take `COc1nc(O[C@H]2CCc3c(-c4cccc(-c5ccc(C6=NCCN6)c(OC)n5)c4Cl)cccc32)c(Br)cc1CNC[C@@H](O)CC(=O)O` [Example 787]: the pEC50 on PD-1/PD-L1 interaction was 7.24. For the same molecule, the pIC50 at PD-1/PD-L1 is 10.18. Also, on PD-L1, the AC50 is 35.4 nM.
As for `COc1nc(O[C@H]2CCc3c(-c4cccc(-c5ccc(C6=NCCN6)c(OC)n5)c4Cl)cccc32)c(Br)cc1CN[C@](C)(CO)C(=O)O` [Example 788], the pEC50 at PD-1/PD-L1 interaction is 7.41. Also, the pIC50 at PD-1/PD-L1 was 10.19. Also, the AC50 on PD-L1 is 11.8 nM.
In the same order, the values of `COc1nc(O[C@H]2CCc3c(-c4cccc(-c5ccc(C6=NCCN6)c(OC)n5)c4Cl)cccc32)c(Br)cc1CN[C@@](C)(CO)C(=O)O` [Example 789] are 7.24, 10.19 and 17.9 nM.
On to `COc1nc(O[C@H]2CCc3c(-c4cccc(-c5ccc(CNC[C@@H]6CCC(=O)N6)c(F)c5)c4Cl)cccc32)c(Br)cc1CNC[C@@H]1CCC(=O)N1` [Example 790], for which the pEC50 at PD-1/PD-L1 interaction was 7.08. Also, the pIC50 on PD-1/PD-L1 was 9.06. Moreover, at PD-L1, the AC50 worked out at 75.7 nM.
Regarding `COc1nc(O[C@H]2CCc3c(-c4cccc(-c5ccc(CNC[C@@H]6CCC(=O)N6)c(Cl)c5)c4Cl)cccc32)c(Br)cc1CNC[C@@H]1CCC(=O)N1` [Example 791], on PD-1/PD-L1 interaction, the pEC50 is 6.76. Further, the pIC50 at PD-1/PD-L1 is 8.55. Also, the AC50 on PD-L1 stood at 206 nM.
As to `COc1cc(-c2cccc(-c3cccc4c3CC[C@@H]4Oc3nc(OC)c(CNC[C@@H]4CCC(=O)N4)cc3Br)c2Cl)ccc1CNC[C@@H]1CCC(=O)N1` [Example 792], the pEC50 on PD-1/PD-L1 interaction is 7.40. Besides, the pIC50 at PD-1/PD-L1 is 9.27. Further, the AC50 on PD-L1 was found to be 22.7 nM.
For `COc1nc(O[C@H]2CCc3c(-c4cccc(-c5ccc6c(c5)C[C@@H](N)C6)c4Cl)cccc32)ccc1CNC[C@@H]1CCC(=O)N1` [Example 793] the same measures were 5.74, 8.76 and 187 nM.
In the case of `COc1nc(O[C@H]2CCc3c(-c4cccc(-c5ccc6c(c5)C[C@@H](N)C6)c4Cl)cccc32)c(Br)cc1CNC[C@@H]1CCC(=O)N1` [Example 794], the pEC50 on PD-1/PD-L1 interaction was 6.10. Moreover, at PD-1/PD-L1, the pIC50 was 8.76. Further, the AC50 on PD-L1 turned out to be 94.2 nM.
In the same order, the values of `C[C@@](CO)(NCc1cc(Cl)c(O[C@H]2CCc3c(-c4cccc(-c5ccc6c(c5)CC(N)C6)c4Cl)cccc32)nc1OCc1cncc(C#N)c1)C(=O)O` (stereo partly shown) [Example 795] are 7.39, 10.19 and 9.65 nM.
With `COc1cc(O[C@H]2CCc3c(-c4cccc(-c5ccc(CN6CC7(CCC(=O)N7)C6)c(OC)n5)c4Cl)cccc32)c(Cl)cc1CNC[C@@H]1CCC(=O)N1` [Example 796], on PD-1/PD-L1 interaction, the pEC50 is 6.82. At PD-1/PD-L1, the pIC50 is 9.12. Moreover, on PD-L1, the AC50 stood at 228 nM.
With `COc1nc(-c2cccc(-c3cccc4c3CC[C@@H]4Oc3nc(OCc4cc(C#N)cc(C#N)c4)c(CNC[C@@H](O)CC(=O)O)cc3Cl)c2Cl)ccc1CNC[C@@H]1CCC(=O)N1` [Example 797], the pEC50 at PD-1/PD-L1 interaction is 7.52. Also, the pIC50 on PD-1/PD-L1 was 10.19. For the same molecule, the AC50 at PD-L1 came to 41.4 nM.
Turning to `COc1cc(-c2cccc(-c3cccc4c3CC[C@@H]4Oc3nc(OC)c(CNC[C@@H]4CCC(=O)N4)cc3Cl)c2Cl)nc(Cl)c1CNC[C@@H]1CCC(=O)N1` [Example 799], on PD-1/PD-L1 interaction, the negative logarithm of the EC50 (pEC50) is 6.78. Moreover, the pIC50 on PD-1/PD-L1 is 9.47. At PD-L1, the half-maximal activity concentration (AC50) was 150 nM.
Take `COc1nc(-c2cc(F)cc(-c3cccc4c3CC[C@@H]4Oc3ccc(CNC[C@@H]4CCC(=O)N4)c(OCc4cncc(C#N)c4)n3)c2Cl)ccc1CNC[C@@H]1CCC(=O)N1` [Example 800]: the pEC50 on PD-1/PD-L1 interaction was 6.61. Besides, at PD-1/PD-L1, the pIC50 was 8.89. The AC50 on PD-L1 amounted to 537 nM.
For `N#Cc1cncc(COc2cc(O[C@H]3CCc4c(-c5cccc(-c6ccc7sc(CNC[C@@H]8CCC(=O)N8)nc7c6)c5Cl)cccc43)c(Cl)cc2CNC[C@@H]2CCC(=O)N2)c1` [Example 801] the same measures were not above 4.30, 8.01 and not below 10000 nM.
Consider `N#Cc1cncc(COc2cc(O[C@H]3CCc4c(-c5cccc(-c6nc7ccc(CNC[C@@H]8CCC(=O)N8)cn7n6)c5Cl)cccc43)c(Cl)cc2CNC[C@@H]2CCC(=O)N2)c1` [Example 802], for which the pEC50 at PD-1/PD-L1 interaction is 6.75. Also, the pIC50 on PD-1/PD-L1 is 10.08. Further, the AC50 at PD-L1 turned out to be 55.5 nM.
For the molecule `N#Cc1cncc(COc2nc(O[C@H]3CCc4c(-c5cccc(-c6nc7ccc(CNC[C@@H](O)CC(=O)O)cn7n6)c5Cl)cccc43)c(Cl)cc2CNC[C@@H](O)CC(=O)O)c1` [Example 803], the pEC50 on PD-1/PD-L1 interaction was 7.31. On PD-1/PD-L1, the pIC50 was 10.19. On PD-L1, the AC50 was 11.7 nM.
